# In US5010058A, “3,5,6-substituted derivatives of 1,2-O-isopropylidene-α,D-glucofuranose and intermediates for preparing these derivatives” (501 Greenwich Pharmaceuticals Incorporated, priority 1989, dated 1991):
# Where two headings read alike, the source gives them in different places.
# System: normal spleen cells / splenic T-lymphocytes (Con-A stimulated)
# Assay: Con-A blastogenic response of normal spleen cells (3H-thymidine incorporation)
# Type: cell-based, mouse (C57Bl/6)
# Conditions: for Blastogenic response of normal spleen cells to Con-A; % effect / inhibition at 1 µg/mL / inhibition at 10 µg/mL / inhibition at 25 µg/mL / inhibition at 100 µg/mL / inhibition at 300 µg/mL / inhibition at 750 µg/mL: percent change from no compound; for Blastogenic response of normal spleen cells to Con-A; % effect: 4320 min; for Blastogenic response of normal spleen cells to Con-A: triplicates ± SD; for inhibition at 1 µg/mL / inhibition at 10 µg/mL / inhibition at 25 µg/mL / inhibition at 100 µg/mL / inhibition at 300 µg/mL / inhibition at 750 µg/mL: Mus musculus, T-lymphocyte, 72 h, read-out: Blastogenic response of normal spleen cells to Con-A, % effect
# Excerpt: A simple method is used to screen compounds for their ability to modulate T-lymphocyte activity which comprises assessing the capacity of the compounds to alter the activation of murine spleen cells in response to T-lymphocyte mitogen activators, such as concanavalin-A (Con-A). The method used to measure the effects of the compounds of the present invention on the blastogenic response of spleen cells to the T-lymphocyte mitogen, (i.e., Con-A), is as follows.
# Spleen cells were removed from normal C57Bl/6 mice and homogenized to obtain a single cell suspension. Erythrocytes were lysed by hypotonic shock. Upon determination of the viability and concentration of the remaining lymphoid cells, they were adjusted to a concentration of 4×10^6 /ml. These spleen cells (2×10^5 cells per […]) were seeded into wells of microtiter plates with the compounds of the present invention having the following dose concentrations:
# Con-A was also added to these cultures at a final concentration of […]. These cells were cultured for 3 days at 37° C. in a humidified atmosphere of 5% CO2 in air. For the last 18 hours of culture, […] H-thymidine was added to each well. The cells were then precipitated by a multichannel harvester. The amount of ^3 H-thymidine incorporated by the cultured cells were measured in a liquid scintillation counter (Disintegrations per min., DPM). All assays were conducted in triplicate.
# The incubation medium used for the blastogenesis assays was RPMI-1640 medium containing 10% fetal bovine serum, […] streptomycin, 100 U/ml penicillin, […] Hepes buffer solution, 5×10^-5 M 2-mercaptoethanol and 2 mM glutamine.
# ^a Experimental compounds were first suspended in DMSO or ethanol,
# ^b The effect of experimental compounds on the blastogenic response o
# [1] = Con-A 1 ug/ml, compound 1 ug/ml
# [2] = Con-A 1 ug/ml, compound 10 ug/ml
# [3] = Con-A 1 ug/ml, compound 25 ug/ml
# [4] = Con-A 1 ug/ml, compound 100 ug/ml
# [5] = Con-A 1 ug/ml, compound 300 ug/ml
# [6] = Con-A 1 ug/ml, compound 750 ug/ml
# [7] = Con-A 4 ug/ml, compound 1 ug/ml
# [8] = Con-A 4 ug/ml, compound 10 ug/ml
# [9] = Con-A 4 ug/ml, compound 25 ug/ml
# [10] = Con-A 4 ug/ml, compound 100 ug/ml
# [11] = Con-A 4 ug/ml, compound 300 ug/ml
# [12] = Con-A 4 ug/ml, compound 750 ug/ml
SMILES,Blastogenic response of normal spleen cells to Con-A [1],Blastogenic response of normal spleen cells to Con-A [2],Blastogenic response of normal spleen cells to Con-A [3],Blastogenic response of normal spleen cells to Con-A [4],Blastogenic response of normal spleen cells to Con-A [5],Blastogenic response of normal spleen cells to Con-A [6],Blastogenic response of normal spleen cells to Con-A [7],Blastogenic response of normal spleen cells to Con-A [8],Blastogenic response of normal spleen cells to Con-A [9],Blastogenic response of normal spleen cells to Con-A [10],Blastogenic response of normal spleen cells to Con-A [11],Blastogenic response of normal spleen cells to Con-A [12],inhibition at 1 µg/mL [1],inhibition at 10 µg/mL [2],inhibition at 25 µg/mL [3],inhibition at 100 µg/mL [4],inhibition at 300 µg/mL [5],inhibition at 750 µg/mL [6],inhibition at 1 µg/mL [7],inhibition at 10 µg/mL [8],also measured
"CCCCCCCNC[C@H]1OC(C)(C)O[C@@H]2[C@H]3OC(C)(C)O[C@H]3O[C@@H]21 [Ex. 1, 1,2:3,5-Di-O-isopropylidene-6-deoxy-6-aminoheptyl-α, D-glucofuranose]","93,328 ± 15,583 cpm","53,439 ± 9,464 cpm","26,920 ± 10,528 cpm","10,705 ± 9,501 cpm","5,398 ± 4,008 cpm","19,688 ± 7,148 cpm","116,263 ± 2,521 cpm","32,032 ± 1,999 cpm","6,201 ± 1,410 cpm","4,880 ± 3,619 cpm","3,097 ± 573 cpm","2,089 ± 35 cpm",,,,,,,,,Blastogenic response of normal spleen cells to Con-A; % effect [1]: +29%; Blastogenic response of normal spleen cells to Con-A; % effect [2]: -26%; Blastogenic response of normal spleen cells to Con-A; % effect [3]: -63%; Blastogenic response of normal spleen cells to Con-A; % effect [4]: -85%; Blastogenic response of normal spleen cells to Con-A; % effect [5]: -93%; Blastogenic response of normal spleen cells to Con-A; % effect [6]: -87%; Blastogenic response of normal spleen cells to Con-A; % effect [7]: +20%; Blastogenic response of normal spleen cells to Con-A; % effect [8]: -67%; Blastogenic response of normal spleen cells to Con-A; % effect [9]: -94%; Blastogenic response of normal spleen cells to Con-A; % effect [10]: -95%; Blastogenic response of normal spleen cells to Con-A; % effect [11]: -97%; Blastogenic response of normal spleen cells to Con-A; % effect [12]: -98%
"CCCCCCCNCC(O)C1OC2OC(C)(C)OC2C1OCCCCCCC [Ex. 4, 1,2-O-Isopropylidene-3-O-(n-heptyl)-6-deoxy-6-aminoheptyl-α, D-glucofuranose]","22,026 ± 9,838 cpm","3,406 ± 422 cpm","3,575 ± 827 cpm","5,241 ± 2,071 cpm","9,102 ± 6,857 cpm","3,762 ± 1,201 cpm","41,151 ± 9,885 cpm","7,789 ± 7,636 cpm","13,114 ± 8,696 cpm","7,102 ± 6,851 cpm","4,919 ± 645 cpm","3,128 ± 99 cpm",70%,95%,95%,93%,87%,95%,58%,92%,inhibition at 25 µg/mL [9]: 86%; inhibition at 100 µg/mL [10]: 93%; inhibition at 300 µg/mL [11]: 95%; inhibition at 750 µg/mL [12]: 97%
"CCCCCCCOC(C)C1OC2OC(C)(C)OC2C1O [Ex. 5, 1,2-O-Isopropylidene-5-O-n-heptyl-6-deoxy α, D-glucofuranose]","91,612 ± 15,530 cpm","79,822 ± 15,967 cpm","63,177 ± 13,102 cpm","8,553 ± 9,274 cpm","8,698 ± 786 cpm","9,487 ± 7,951 cpm","116,377 ± 12,433 cpm","92,190 ± 13,256 cpm","62,068 ± 3,736 cpm","2,299 ± 490 cpm","5,932 ± 2,770 cpm","4,494 ± 2,952 cpm",-27%,-11%,13%,88%,88%,87%,-20%,5%,inhibition at 25 µg/mL [9]: 36%; inhibition at 100 µg/mL [10]: 98%; inhibition at 300 µg/mL [11]: 94%; inhibition at 750 µg/mL [12]: 95%
"CCCCCCCOC(C)C1OC2OC(C)(C)OC2C1OCCCN(C)C [Ex. 6, 1,2-O-Isopropylidene-3-O-3'-(N'-N'-dimethylaminopropyl)-5-O-n-heptyl-6-deoxy-α,D-glucofuranose]","86,406 ± 16,348 cpm","12,670 ± 6,997 cpm","5,399 ± 3,253 cpm","6,597 ± 2,887 cpm","3,693 ± 340 cpm","3,709 ± 281 cpm","75,689 ± 8,498 cpm","4,693 ± 1,930 cpm","6,187 ± 6,859 cpm","6,741 ± 4,224 cpm","3,756 ± 923 cpm","2,933 ± 1,383 cpm",-20%,82%,93%,91%,95%,95%,22%,95%,inhibition at 25 µg/mL [9]: 94%; inhibition at 100 µg/mL [10]: 93%; inhibition at 300 µg/mL [11]: 96%; inhibition at 750 µg/mL [12]: 97%
